From ChEMBL document CHEMBL6134863, “Novel Mitochondria-Targeted Asymmetric Heptamethine Cyanine Dye for Cancer Targeted NIR Imaging and Potent Necrosis and Senescence Induction with Prolonged Retention” (J Med Chem, 2025)
Activity calls are given as the source filed them. The calls are words filed in the database; no cut-off is given here.

How the values were obtained:
[1] = Antioxidant activity of compound in presence of Cl-; format: functional
[2] = Stability of compound in DMSO-H2O incubated for 150 mins by absorbance based analysis; format: physicochemical; conditions: 2.5 h
[3] = Stability of compound in DMSO-H2O incubated for 1 hr by absorbance based analysis; format: physicochemical
[4] = Distribution coefficient, logD of compound; format: physicochemical; conditions: octanol/water
[5] = Antioxidant activity of compound in presence of SO4; format: functional
[6] = Antioxidant activity of compound in presence of Br-; format: functional
[7] = Partition coefficient, logP of compound; format: physicochemical; conditions: octanol/water
[8] = Cytotoxicity against human Primary lung fibroblast assessed as decrease in cell viability up to 10 uM incubated for 24 hrs by CCK-8 assay; format: toxicity, cell-based
[9] = Drug localization in mitochondria of human NCI-H226 cell by MitoTracker Red based NIR confocal microscopic analysis; format: ADME
[10] = Drug uptake in mouse 4T1 cells assessed as increase in red fluorescence intensity at 5 uM incubated for 30 mins by CY7 staining based microscopic analysis; format: ADME, cell-based; conditions: 4t1, 0.5 h
[11] = Drug accumulation in tumor to muscle of BALB/c mouse implanted with mouse 4T1 cells at 0.5 mg/kg, iv measured at 4 to 168 hrs; format: ADME, organism-based; conditions: in vivo, time 4-168 hrs
[12] = Antioxidant activity of compound in presence of RSS; format: functional
[13] = Antioxidant activity of compound in presence of H2O2-; format: functional
[14] = test system: 4T1; assay: Antitumor activity against mouse 4T1 cells implanted in BALB/c mouse assessed as tumor growth inhibition 5 mg/kg, iv measured for 11 days; format: functional; conditions: 4T1, 264 h, time 11 day, read-out: TGI
[15] = Antioxidant activity of compound in presence of TBHP; format: functional
[16] = Ratio of drug level in tumor to muscle of BALB/c mouse implanted with mouse 4T1 cells at 0.5 mg/kg, iv measured at 12 to 24 hrs; format: ADME, organism-based; conditions: in vivo, time 12-24 hrs
[17] = Solubility of compound in DMSO-H2O; format: physicochemical
[18] = Antioxidant activity of compound in presence of HSO3-; format: functional
[19] = Antioxidant activity of compound in presence of […]; format: functional
[20] = Antioxidant activity of compound in presence of CO3; format: functional
[21] = Antioxidant activity of compound in presence of HCO3-; format: functional
[22] = test system: NCI-H226; assay: Cytotoxicity against human NCI-H226 assessed as decrease in cell viability up to 10 uM incubated for 24 hrs by CCK-8 assay; format: functional, cell-based
[23] = Drug accumulation in BALB/c mouse tumor implanted with mouse 4T1 cells assessed as increase in fluorescence intensity at 0.5 mg/kg, iv measured at 48 hrs by imaging based analysis; format: ADME, organism-based, Neoplasm; conditions: in vivo
[24] = Antioxidant activity of compound in presence of ROS; format: functional
[25] = Antioxidant activity of compound in presence of Ca2+; format: functional
[26] = Antioxidant activity of compound in presence of ClO-; format: functional
[27] = Drug uptake in human NCI-H226 cells assessed as increase in green fluorescence intensity at 5 uM incubated for 30 mins by F-actin staining staining based microscopic analysis; format: ADME, cell-based; conditions: nci-h226, 0.5 h
[28] = Antioxidant activity of compound in presence of Fe3+; format: functional
[29] = Antioxidant activity of compound in presence of NO2; format: functional
[30] = Drug uptake in human NCI-H226 cells assessed as increase in red fluorescence intensity at 5 uM incubated for 30 mins by CY7 staining based microscopic analysis; format: ADME, cell-based; conditions: nci-h226, 0.5 h
[31] = test system: NCI-H250; assay: Antitumor activity against human […] cells xenografted in BALB/c mouse assessed as tumor growth inhibition 0.5 mg/kg, iv measured for 5 days; format: functional, organism-based; conditions: time 5.0 day
[32] = Drug accumulation in BALB/c mouse tumor xenografted with human NCI-H520 cells assessed as increase in fluorescence intensity at 0.5 mg/kg, iv measured at 96 hrs by imaging based analysis; format: ADME, organism-based, Neoplasm; conditions: in vivo
[33] = Photostability of compound in DMSO-H2O incubated for 1 hr irradiated with deuterium lamp by absorbance based analysis; format: physicochemical; conditions: read-out: Stability
[34] = Antioxidant activity of compound in presence of RNS; format: functional
[35] = Antioxidant activity of compound in presence of HCHO; format: functional
[36] = Drug uptake in human NCI-H226 cells assessed as increase in fluorescence intensity incubated for 24 hrs by fluorescence based microscopic analysis; format: ADME, cell-based; conditions: nci-h226, 24 h
[37] = Antioxidant activity of compound in presence of L-Cysteine; format: functional
[38] = Antioxidant activity of compound in presence of OH; format: functional
[39] = Toxicity in BALB/c mouse implanted with mouse 4T1 cells assessed as survival rate at 5 mg/kg, iv measured for 11 days; format: organism-based; conditions: in vivo, time 11 day
[40] = test system: NIH3T3; assay: Cytotoxicity against mouse 3T3 cells assessed as decrease in cell viability up to 5 uM incubated for 24 hrs by CCK-8 assay; format: toxicity, cell-based; conditions: nih3t3, 24 h
[41] = Antioxidant activity of compound in presence of NH4+; format: functional
[42] = Drug uptake in mouse 4T1 cells assessed as increase in green fluorescence intensity at 5 uM incubated for 30 mins by F-actin staining staining based microscopic analysis; format: ADME, cell-based; conditions: 4t1, 0.5 h
[43] = Cytotoxicity against human Primary lung fibroblast assessed as decrease in cell viability up to 5 uM incubated for 24 hrs by CCK-8 assay; format: toxicity, cell-based
[44] = Antioxidant activity of compound in presence of Glutathione; format: functional
[45] = Antioxidant activity of compound in presence of ONOO-; format: functional

Structure (SMILES): CCN1/C(=C/C=C2\CCCC(/C=C/C3=[N+](CCCOc4ccc(C(=O)O)cc4)c4ccccc4C3(C)C)=C2Cl)C(C)(C)c2ccccc21.[Br-]
- Activity [1]: Active
- Stability [2]: Stable
- Stability [3]: Stable
- logD [4]: 4.34
- Activity [5]: Active
- Activity [6]: Active
- logP [7]: 6.05
- Activity [8]: Non-toxic
- Drug uptake [9]: Active
- Drug uptake [10]: Active
- Drug uptake [11]: Active
- Activity [12]: Active
- Activity [13]: Active
- inhibition in vivo at 5 mg/kg [14]: ~60%
- Activity [15]: Active
- Ratio [16]: > 5
- solubility [17]: 170 µg/mL
- Activity [18]: Active
- Activity [19]: Active
- Activity [20]: Active
- Activity [21]: Active
- Activity [22]: Active
- Drug uptake [23]: Active
- Activity [24]: Active
- Activity [25]: Active
- Activity [26]: Active
- Drug uptake [27]: Active
- Activity [28]: Active
- Activity [29]: Active
- Drug uptake [30]: Active
- TGI [31]: Active
- Drug uptake [32]: Active
- remaining at 1 h [33]: 96.9%
- Activity [34]: Active
- Activity [35]: Active
- Drug uptake [36]: Active
- Activity [37]: Active
- Activity [38]: Active
- survival at 264 h [39]: 100%
- Activity [40]: > 80%
- Activity [41]: Active
- Drug uptake [42]: Active
- Activity [43]: Non-toxic
- Activity [44]: Active
- Activity [45]: Active
